Measurements reported in PMC8318231, “Rate-of-Kill (RoK) assays to triage large compound sets for Chagas disease drug discovery: Application to GSK Chagas Box” (PLoS Neglected Tropical Diseases, 2021).

Tests used:
[1] = tested on: T. cruzi Tulahuen trypomastigotes; assay: T. cruzi trypomastigote assay (Cell Titer-Glo viability, ATP luminescence); format: cell-based, Trypanosoma cruzi; conditions: for Trypomastigotes pIC50 48 hours: 48 hours incubation; for Trypomastigotes pIC50 48 hours / Trypomastigotes pIC50 72 hours: pIC50 = -log10 IC50 in molar units; for Trypomastigotes pIC50 72 hours: 72 hours incubation; for 48 pIC50 / 72 pIC50: trypomastigote assay; for 48 pIC50: 48 h; for 72 pIC50: 72 h
Method: T. cruzi Tulahuen trypomastigotes obtained from the supernatants of LLC-MK2 infected cultures in a 225 cm^2 T-Flasks harvested between days 5 and 8 of infection. Trypomastigotes (5 × 10^4 per well) in 50 μl of DMEM/ 2% FBS were dispensed into white 384 plates (Greiner) pre-stamped with 250 nl compound a single-shot final concentration of 5 μM, or in dose response. […] Cell Titer-Glo cell viability solution (Promega) was added to each well (50 μL) incubated at room temperature for 10 min and luminescence read by Envision plate reader (Perkin Elmer). This assay quantifies the amount of ATP present which is directly proportional to the number of metabolically active cells. All data were normalised (100% effect control for no cells and 0% effect control for DMSO). This assay was adapted from MacLean et al., 2018 [22].

TcCYP51 = conditions: formerly reported; cited from earlier work

SMILES | Trypomastigotes pIC50 48 hours [1] | Trypomastigotes pIC50 72 hours [1] | CYP51 pIC50 (TcCYP51) | 48 pIC50 ([1]; figure 1A) | 72 pIC50 ([1]; figure 1A) | 72 pIC50 ([1]; figure 1B)
O=C(NCC1CCCCC1)c1cnns1 [TCMDC-143612] | 4.7 | 4.9 | < 4 | – | – | –
CN(Cc1cccnc1)Cc1ccc(N2CCN(C(=O)C3(c4ccc(Cl)cc4)CC3)CC2)nc1 [TCMDC-143247] | 5.1 | 4.4 | 6.8 | – | – | –
CN(Cc1ccc(F)cc1)c1ccc(OCC(=O)N2CCCCC2c2cccnc2)nn1 (stereo not shown) [TCMDC-143334] | < 4.3 | < 4.3 | 7.3 | < 4.3 | < 4.3 | < 4.3
Fc1ccccc1N1C[C@H]2CCN(c3cccnc3)C[C@H]2C1.O=C(O)C(F)(F)F [TCMDC-143422] | 4.6 | < 4.3 | 7.2 | – | – | –
O=S(=O)(c1ccccc1C(F)(F)F)N1CCN(Cc2ccc(-n3ccnc3)cc2)CC1 [TCMDC-143161] | < 4.3 | < 4.3 | 7 | < 4.3 | < 4.3 | < 4.3
Clc1cc(Br)ccc1OCCCCn1ccnc1.O=C(O)C(=O)O [TCMDC-143590] | 5.4 | 5.3 | 7.2 | – | – | –
CN(C)c1ncc(-c2cncn2CCOc2ccc(Cl)cc2)cn1 [TCMDC-143415] | 4.5 | 4.5 | 7.3 | 4.5 | 4.5 | 4.5
O=C(c1cnn(-c2ccccc2)n1)N1CCCC(n2ccnc2)C1 (stereo not shown) [TCMDC-143492] | < 4.3 | < 4.3 | 7.1 | < 4.3 | < 4.3 | < 4.3
N#Cc1nc(C=Cc2ccccc2)oc1NCc1cccnc1 [TCMDC-143120] | 4.5 | < 4.3 | – | – | – | –
COc1ccc(C)cc1-c1csc(NC(=O)C(C)n2ccnc2)n1 (stereo not shown) [TCMDC-143430] | < 4.3 | < 4.3 | 7.4 | < 4.3 | < 4.3 | < 4.3
O=C(NCCc1nc(-c2ccc(F)c(F)c2)n[nH]1)C1CCCCC1 [TCMDC-143466] | < 4.3 | 4.5 | 4.6 | – | – | –
COc1ccc(-c2cc(C)no2)cc1S(=O)(=O)Nc1ccc(F)c(Cl)c1 [TCMDC-143193] | 4.8 | 4.4 | < 4 | – | – | –
O=c1ccn(-c2ccc([N+](=O)[O-])cc2Cl)c2ccc(F)cc12 [TCMDC-143520] | < 4.3 | < 4.3 | 4.8 | < 4.3 | < 4.3 | < 4.3
COc1ccc(CN2CCCCC2c2nc(-c3cccnc3)no2)cc1 (stereo not shown) [TCMDC-143467] | < 4.3 | < 4.3 | 6.7 | < 4.3 | < 4.3 | < 4.3
Cc1nc(N2CCC(C(=O)N3CCC(O)(c4cccnc4)CC3)CC2)nc2ccc(C(C)C)cc12 [TCMDC-143333] | 4.5 | 4.4 | 6.9 | – | – | –
COc1cccc(-c2cc(C(F)(F)F)nc(-n3ccc([N+](=O)[O-])n3)n2)c1 [TCMDC-143105] | 5.8 | 6 | < 4 | – | – | –
Cc1ccc(CNC2CCN(C[C@@H]3Cn4c(=O)ccc5ccc(=O)n3c54)CC2)cc1F [TCMDC-143403] | < 4.3 | < 4.3 | < 4 | < 4.3 | < 4.3 | < 4.3

SMILES | Trypomastigotes pIC50 48 hours [1] | Trypomastigotes pIC50 72 hours [1] | CYP51 pIC50 (TcCYP51) | 48 pIC50 ([1]; figure 1A) | 72 pIC50 ([1]; figure 1A) | 72 pIC50 ([1]; figure 1B)
CC(C)Oc1ccc(C(=O)Nc2ccc(N3CCOCC3)c(Cl)c2)cc1 [TCMDC-143592] | < 4.3 | < 4.3 | < 4 | < 4.3 | < 4.3 | < 4.3
CCC1Oc2cc(S(=O)(=O)N(C)CC(=O)N3CCc4ccccc4C3)c(C)cc2NC1=O (stereo not shown) [TCMDC-143332] | < 4.3 | < 4.3 | 6.1 | < 4.3 | < 4.3 | < 4.3
N#Cc1cccc(CN2CCC(N(Cc3cccnc3)C(=O)c3cc(F)c(F)cc3F)CC2)c1 [TCMDC-143178] | < 4.3 | < 4.3 | 7.3 | < 4.3 | < 4.3 | < 4.3
O=C(NCc1nnc2n1CCCCC2)c1ccc(-c2ccc(F)cc2)o1 [TCMDC-143446] | < 4.3 | 4.7 | 4.1 | – | – | –
Cc1ccc(S(=O)(=O)Cn2nnnc2C(c2cccnc2)N2CCN(c3ccccc3)CC2)cc1 (stereo not shown) [TCMDC-143539] | < 4.3 | < 4.3 | 6.7 | < 4.3 | < 4.3 | < 4.3
CC(C)(C)C(O)(CCc1ccc(Cl)cc1)Cn1cncn1 (stereo not shown) [TCMDC-143614] | < 4.3 | < 4.3 | 6.9 | < 4.3 | < 4.3 | < 4.3
CC(C(=O)Nc1ccccc1F)N(C)CC(=O)Nc1cccc2ccccc12 (stereo not shown) [TCMDC-143293] | – | < 4.3 | 4.8 | – | – | –
O=C(CCCn1cnc([N+](=O)[O-])n1)Nc1cccc(Cl)c1 [TCMDC-143186] | 6 | 5.9 | 4.3 | – | – | –
COc1ccc(-c2ccc3nnc(-c4ccc(O)c(OC)c4)n3c2)cn1 [TCMDC-143413] | < 4.3 | < 4.3 | < 4 | < 4.3 | < 4.3 | < 4.3
O=C(Nc1ccc(Br)cn1)c1ccc(Cn2cnc([N+](=O)[O-])n2)cc1 [TCMDC-143156] | 6.1 | 6.1 | < 4 | 6.1 | 6.1 | 6.1
CN(Cc1cc2ccccc2s1)c1ncc2c(N)nc(N)nc2n1 [TCMDC-143232] | 5.3 | 5.5 | < 4 | – | – | –
O=C(NCCNc1noc(-c2ccc([N+](=O)[O-])cc2)n1)c1ccc(Cl)cc1 [TCMDC-143241] | 5.4 | 5.5 | < 4 | – | – | –
COc1ccccc1C=CCN1C[C@H]2CCC[C@@H](C1)C2(O)c1cccnc1 (stereo partly shown) [TCMDC-143309] | < 4.3 | 4.5 | 6.9 | – | – | –
CN(Cc1ccccc1)Cc1nnnn1C1CCN(Cc2ccc(-n3ccnc3)cc2)CC1 [TCMDC-143322] | – | – | 7.3 | – | – | –
O=C(Nc1ccc(C(=O)N2CCCC2c2ccc3c(c2)OCCCO3)cc1)c1ccco1 (stereo not shown) [TCMDC-143198] | – | – | 4.2 | – | – | –
CN(Cc1nnnn1C1CCN(Cc2ccc(-n3ccnc3)cc2)CC1)c1ccc(F)cc1F [TCMDC-143321] | – | – | 6.9 | – | – | –
